What was measured:
Settings in all cases: incubation time: 72 h
HDQ-P1 [1] = assay: normalised response (% of control), CellTiter-Glo; higher = more viable cells (100 = DMSO, 0 = benzethonium chloride kill control)
How it was run: (§1)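 CellTox Green fluorescence (485/520 nm) and, after 10 min at room temperature, CellTiter-Glo luminescence were read from breast cancer cell lines incubated 72 h in 384-well plates. Cells were seeded as 20 µl suspension onto compound at 5 concentrations in 10-fold steps over a 10,000-fold range chosen per compound. Each plate was normalised to 0.1 % DMSO (100) and a positive kill control (0). Values are normalised signals, one per concentration.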

CAL-85-1 [2] = assay: as above
How it was run: as §1

MFM-223 [3] = assay: as above
How it was run: as §1

CAL-148 [4] = assay: as above
How it was run: as §1

MDA-MB-231 [5] = assay: as above
How it was run: as §1

CAL-120 [6] = assay: as above
How it was run: as §1

MDA-MB-436 [7] = assay: as above
How it was run: as §1

CAL-51 [8] = assay: as above
How it was run: as §1

MDA-MB-453 [9] = assay: as above
How it was run: as §1

DU-4475 [10] = assay: as above
How it was run: as §1

MDA-MB-468 [11] = assay: as above
How it was run: as §1

HCC1599 [12] = assay: as above
How it was run: as §1

HCC1937 [13] = assay: as above
How it was run: as §1

BT-474 [14] = assay: as above
How it was run: as §1

SK-BR-3 [15] = assay: as above
How it was run: as §1

HCC1143 [16] = assay: as above
How it was run: as §1

Hs578T [17] = assay: as above
How it was run: as §1

MCF-10A = assay: as above
How it was run: as §1

BT-549 [18] = assay: as above
How it was run: as §1

HDQ-P1 [19] = assay: normalised viability (% of control), CellTiter-Blue; higher = more viable cells (100 = DMSO, 0 = benzethonium chloride kill control)
How it was run: (§2)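 Each value is normalised viability at a single listed concentration of the series. Breast cancer cell lines in 384-well plates were incubated 72 h with compound and read by CellTiter-Blue fluorescence at 560/590 nm, with vehicle set to 100 and a positive kill control to 0 on every plate.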

CAL-85-1 [20] = assay: as above
How it was run: as §2

MFM-223 [21] = assay: as above
How it was run: as §2

CAL-148 [22] = assay: as above
How it was run: as §2

MDA-MB-231 [23] = assay: as above
How it was run: as §2

CAL-120 [24] = assay: as above
How it was run: as §2

MDA-MB-436 [25] = assay: as above
How it was run: as §2

CAL-51 [26] = assay: as above
How it was run: as §2

MDA-MB-453 [27] = assay: as above
How it was run: as §2

DU-4475 [28] = assay: as above
How it was run: as §2

MDA-MB-468 [29] = assay: as above
How it was run: as §2

HCC1599 [30] = assay: as above
How it was run: as §2

HCC1937 [31] = assay: as above
How it was run: as §2

BT-474 [32] = assay: as above
How it was run: as §2

SK-BR-3 [33] = assay: as above
How it was run: as §2

HCC1143 [34] = assay: as above
How it was run: as §2

Hs578T [35] = assay: as above
How it was run: as §2

BT-549 [36] = assay: as above
How it was run: as §2

| SMILES | normalised response (HDQ-P1 [1]) | normalised response (CAL-85-1 [2]) | normalised response (MFM-223 [3]) | normalised response (CAL-148 [4]) | normalised response (MDA-MB-231 [5]) | normalised response (CAL-120 [6]) | normalised response (MDA-MB-436 [7]) | normalised response (CAL-51 [8]) | normalised response (MDA-MB-453 [9]) | normalised response (DU-4475 [10]) | normalised response (MDA-MB-468 [11]) | normalised response (HCC1599 [12]) | normalised response (HCC1937 [13]) | normalised response (BT-474 [14]) | normalised response (SK-BR-3 [15]) | normalised response (HCC1143 [16]) | normalised response (Hs578T [17]) | normalised response (MCF-10A) | normalised response (BT-549 [18]) | normalised viability (HDQ-P1 [19]) | normalised viability (CAL-85-1 [20]) | normalised viability (MFM-223 [21]) | normalised viability (CAL-148 [22]) | normalised viability (MDA-MB-231 [23]) | normalised viability (CAL-120 [24]) | normalised viability (MDA-MB-436 [25]) | normalised viability (CAL-51 [26]) | normalised viability (MDA-MB-453 [27]) | normalised viability (DU-4475 [28]) | normalised viability (MDA-MB-468 [29]) | normalised viability (HCC1599 [30]) | normalised viability (HCC1937 [31]) | normalised viability (BT-474 [32]) | normalised viability (SK-BR-3 [33]) | normalised viability (HCC1143 [34]) | normalised viability (Hs578T [35]) | normalised viability (BT-549 [36]) |
| --- | --- | --- | --- | --- | --- | --- | --- | --- | --- | --- | --- | --- | --- | --- | --- | --- | --- | --- | --- | --- | --- | --- | --- | --- | --- | --- | --- | --- | --- | --- | --- | --- | --- | --- | --- | --- | --- |
| C[C@]12C=CC(=O)C=C1CC[C@@H]1[C@@H]2C(=O)C[C@@]2(C)[C@H]1CC[C@]2(O)C(=O)CO [Prednisone] (1 nM) | 101% | 99.1% | 106% | 106% | 98.5% | 109% | 110% | 92.7% | 111% | 103% | 104% | 100% | 99.9% | 99.4% | 109% | 101% | 97.1% | 98.2% | 99.8% | 98.1% | 100% | 96.2% | 101% | 95.9% | 84.3% | 110% | 99.5% | 103% | 110% | 104% | 113% | 93.5% | 126% | 90.8% | 92.8% | 104% | 105% |
| CO[C@H]1C[C@@H]2CC[C@@H](C)[C@@](O)(O2)C(=O)C(=O)N2CCCC[C@H]2C(=O)O[C@H]([C@H](C)C[C@@H]2CC[C@@H](O)[C@H](OC)C2)CC(=O)[C@H](C)/C=C(\C)[C@@H](O)[C@@H](OC)C(=O)[C@H](C)C[C@H](C)/C=C/C=C/C=C/1C [Sirolimus] (0.1 nM) | 100% | 96.1% | 100% | 101% | 96.9% | 94% | 94.3% | 96.3% | 95% | 98.9% | 93.8% | 108% | 103% | 101% | 91.1% | 102% | 102% | 108% | 89.9% | 100% | 93.9% | 80.3% | 105% | 85.2% | 102% | 103% | 78.8% | 99.4% | 94.8% | 94.3% | 91.9% | 85.3% | 84.2% | 90.8% | 105% | 74.4% | 88% |
| CN1CCN(c2nc(C3=C(c4c[nH]c5ccccc45)C(=O)NC3=O)c3ccccc3n2)CC1 [Sotrastaurin] (1 nM) | 99.8% | 93% | 93% | 94.8% | 98% | 97% | 94% | 100% | 96.9% | 97.5% | 104% | 89.5% | 99% | 90.6% | 93.3% | 89.9% | 99.2% | 88% | 103% | 85.2% | 109% | 100% | 116% | 94.1% | 117% | 104% | 97% | 102% | 104% | 97.7% | 95.2% | 89.5% | 116% | 91.3% | 131% | 101% | 86.1% |
| CC/C(=C(\c1ccccc1)c1ccc(OCCN(C)C)cc1)c1ccccc1 [Tamoxifen] (1 nM) | 103% | 101% | 102% | 103% | 106% | 99% | 109% | 99.3% | 110% | 98.6% | 104% | 94.3% | 102% | 105% | 103% | 109% | 102% | 111% | 96.4% | 105% | 110% | 93.3% | 113% | 95.1% | 104% | 96% | 90.2% | 107% | 104% | 106% | 84.7% | 88.8% | 81.7% | 102% | 104% | 118% | 81.6% |
| COc1cc2c(N3CCN(C(=O)Nc4ccc(OC(C)C)cc4)CC3)ncnc2cc1OCCCN1CCCCC1 [Tandutinib] (0.1 nM) | 111% | 101% | 105% | 102% | 104% | 101% | 97.3% | 82.2% | 96.1% | 104% | 104% | 113% | 92.9% | 107% | 96.7% | 97.9% | 97.3% | 95.5% | 99.8% | 116% | 101% | 96.7% | 107% | 85.3% | 98.7% | 104% | 107% | 102% | 109% | 105% | 98% | 67.1% | 114% | 106% | 103% | 120% | 111% |
| C[C@@H](C(=O)O)c1ccc(-c2ccccc2)c(F)c1 [Tarenflurbil] (1 nM) | 96.8% | 91.3% | 93.5% | 98.8% | 98.1% | 98.1% | 102% | 83.3% | 103% | 95.6% | 97.1% | 113% | 92.7% | 93.8% | 84.6% | 94.2% | 99.1% | 85.5% | 103% | 85.4% | 92.7% | 97.5% | 97.1% | 88.8% | 93.7% | 103% | 110% | 107% | 111% | 107% | 128% | 108% | 114% | 87.9% | 108% | 101% | 99.2% |
| Cn1nnc2c(C(N)=O)ncn2c1=O [Temozolomide] (1 nM) | 96.3% | 97.5% | 94.9% | 96.2% | 94.8% | 99.5% | 92.3% | 92.3% | 97.6% | 97.5% | 100% | 90% | 99.3% | 95.4% | 98.3% | 95% | 99.8% | 104% | 104% | 96.6% | 103% | 102% | 103% | 93% | 107% | 95.7% | 95.5% | 98.1% | 128% | 96% | 109% | 113% | 86.8% | 126% | 118% | 102% | 100% |
| CC[C@@H]1C(=O)N(C)c2cnc(Nc3ccc(C(=O)N[C@H]4CC[C@H](N5CCN(CC6CC6)CC5)CC4)cc3OC)nc2N1C(C)C [Volasertib] (0.1 nM) | 93.2% | 102% | 96.2% | 93% | 100% | 98.5% | 80.4% | 111% | 108% | 95.2% | 97.3% | 96.6% | 98.9% | 97.7% | 103% | 90.6% | 105% | 88.1% | 104% | 94.3% | 88.4% | 92% | 110% | 110% | 92.4% | 117% | 116% | 101% | 103% | 121% | 88.5% | 101% | 107% | 118% | 96.3% | 102% | 108% |
